# Measured values: BindingDB's records for doi:10.1021/acs.jmedchem.1c01118 (Glaxosmithkline, 2021)
# pIC50: −log10 of the molar value.
# Test: Binding affinity to human 6His-thr cIAP1 BIR3 (253 to 363) domain expressed in Escherichia coli measured after 105 mins in dark by time-resolved fluorescence laser-equipped multimode plate reader
row,SMILES,pIC50
1,Cc1[nH]nc(Nc2ncnc3cc(OCCCN4CCN(C(=O)c5cnc(N6CCN(C[C@H]7CN[C@H](C)CN7CC(=O)N7CC(C)(C)c8c7cc(Cc7ccc(F)cc7)c(=O)n8C)[C@H](C)C6)nc5)CC4)c(S(=O)(=O)C(C)(C)C)cc23)c1C,8.30
2,CN[C@@H](C)C(=O)N[C@H](C(=O)N1CCC[C@H]1c1nc(C(=O)c2ccc(F)cc2)cs1)C1CCN(C(=O)c2cnc(N3CCN(CCCOc4cc5ncnc(Nc6n[nH]c(C)c6C)c5cc4S(=O)(=O)C(C)(C)C)CC3)cn2)CC1,8.10
